The nature of data set [1]: Pharmacokinetics after intravenous or oral dosing, plasma LC/MS/MS. The format is in vivo. As to conditions: fasted male Sprague Dawley rats. How it is done:
Fasted, male Sprague Dawley rats were dosed intravenously or orally. Blood samples were collected at pre-determined time points and plasma was separated. Test article concentrations were determined in plasma by a LC/MS/MS method. Non compartmental analysis was performed to estimate the area under the plasma concentration vs. time curve (AUC). Clearance parameters (CL), bioavailabilities (F) and half-lives were calculated.

The target in data set [2] is Nav1.7 sodium channels (human SCN9A gene) (Homo sapiens (Human), UniProt Q15858). Description: Automated patch clamp (IonWorks Barracuda) of Nav1.7 stably expressed in CHO cells. Format: cell-based. How it is done: The potencies of the compounds provided herein to block specific Na+ channels was measured using automated patch clamp electrophysiologically of Nav1.7 sodium channels (human SCN9A gene) stably expressed in CHO cells using the IonWorks™ Barracuda system. Currents were measured from the whole cell patch configuration. From a holding potential of −90 mV, membranes were subjected to a 200 ms pre-pulse to −120 mV, then pulsed to 0 mV to measure blockade of the tonic (resting) state. Inactivated state block was elicited by repolarization to −100 mV (20 ms pulse duration), followed by depolarization to 0 mV (20 ms pulse duration). Peak inward Na+ currents were measured in the presence of vehicle or various concentrations of the test compound to determine the percent block of current. Concentration-response relationships were used to calculate IC50 values for the illustrative compounds.

Where [3] appears, read: inactivated state block, CHO cells, read-out: Inactivated state IC50.
Setting [4] is: tonic (resting) state block, CHO cells, read-out: Tonic state IC50.
The mark [5] stands for this setting: read-out: Inactivated state IC50.

This is an account of results in US10189859B2, “Derivatives of 6-(2,3-dichlorophenyl)-1,2,4-triazin-5-amine” (Nektar Therapeutics, priority 2013, dated 2019).

Structures are written as SMILES. Values joined by “and” are separate entries in the source; they are usually repeats but may differ in a detail not shown here. Identical values can stand only once. Counter-ions that a name gives are not always drawn. Like-named read-outs stand apart in the source and are kept apart here.

Nav1.7 sodium channels (human SCN9A gene), sequence (Q15858 whole entry): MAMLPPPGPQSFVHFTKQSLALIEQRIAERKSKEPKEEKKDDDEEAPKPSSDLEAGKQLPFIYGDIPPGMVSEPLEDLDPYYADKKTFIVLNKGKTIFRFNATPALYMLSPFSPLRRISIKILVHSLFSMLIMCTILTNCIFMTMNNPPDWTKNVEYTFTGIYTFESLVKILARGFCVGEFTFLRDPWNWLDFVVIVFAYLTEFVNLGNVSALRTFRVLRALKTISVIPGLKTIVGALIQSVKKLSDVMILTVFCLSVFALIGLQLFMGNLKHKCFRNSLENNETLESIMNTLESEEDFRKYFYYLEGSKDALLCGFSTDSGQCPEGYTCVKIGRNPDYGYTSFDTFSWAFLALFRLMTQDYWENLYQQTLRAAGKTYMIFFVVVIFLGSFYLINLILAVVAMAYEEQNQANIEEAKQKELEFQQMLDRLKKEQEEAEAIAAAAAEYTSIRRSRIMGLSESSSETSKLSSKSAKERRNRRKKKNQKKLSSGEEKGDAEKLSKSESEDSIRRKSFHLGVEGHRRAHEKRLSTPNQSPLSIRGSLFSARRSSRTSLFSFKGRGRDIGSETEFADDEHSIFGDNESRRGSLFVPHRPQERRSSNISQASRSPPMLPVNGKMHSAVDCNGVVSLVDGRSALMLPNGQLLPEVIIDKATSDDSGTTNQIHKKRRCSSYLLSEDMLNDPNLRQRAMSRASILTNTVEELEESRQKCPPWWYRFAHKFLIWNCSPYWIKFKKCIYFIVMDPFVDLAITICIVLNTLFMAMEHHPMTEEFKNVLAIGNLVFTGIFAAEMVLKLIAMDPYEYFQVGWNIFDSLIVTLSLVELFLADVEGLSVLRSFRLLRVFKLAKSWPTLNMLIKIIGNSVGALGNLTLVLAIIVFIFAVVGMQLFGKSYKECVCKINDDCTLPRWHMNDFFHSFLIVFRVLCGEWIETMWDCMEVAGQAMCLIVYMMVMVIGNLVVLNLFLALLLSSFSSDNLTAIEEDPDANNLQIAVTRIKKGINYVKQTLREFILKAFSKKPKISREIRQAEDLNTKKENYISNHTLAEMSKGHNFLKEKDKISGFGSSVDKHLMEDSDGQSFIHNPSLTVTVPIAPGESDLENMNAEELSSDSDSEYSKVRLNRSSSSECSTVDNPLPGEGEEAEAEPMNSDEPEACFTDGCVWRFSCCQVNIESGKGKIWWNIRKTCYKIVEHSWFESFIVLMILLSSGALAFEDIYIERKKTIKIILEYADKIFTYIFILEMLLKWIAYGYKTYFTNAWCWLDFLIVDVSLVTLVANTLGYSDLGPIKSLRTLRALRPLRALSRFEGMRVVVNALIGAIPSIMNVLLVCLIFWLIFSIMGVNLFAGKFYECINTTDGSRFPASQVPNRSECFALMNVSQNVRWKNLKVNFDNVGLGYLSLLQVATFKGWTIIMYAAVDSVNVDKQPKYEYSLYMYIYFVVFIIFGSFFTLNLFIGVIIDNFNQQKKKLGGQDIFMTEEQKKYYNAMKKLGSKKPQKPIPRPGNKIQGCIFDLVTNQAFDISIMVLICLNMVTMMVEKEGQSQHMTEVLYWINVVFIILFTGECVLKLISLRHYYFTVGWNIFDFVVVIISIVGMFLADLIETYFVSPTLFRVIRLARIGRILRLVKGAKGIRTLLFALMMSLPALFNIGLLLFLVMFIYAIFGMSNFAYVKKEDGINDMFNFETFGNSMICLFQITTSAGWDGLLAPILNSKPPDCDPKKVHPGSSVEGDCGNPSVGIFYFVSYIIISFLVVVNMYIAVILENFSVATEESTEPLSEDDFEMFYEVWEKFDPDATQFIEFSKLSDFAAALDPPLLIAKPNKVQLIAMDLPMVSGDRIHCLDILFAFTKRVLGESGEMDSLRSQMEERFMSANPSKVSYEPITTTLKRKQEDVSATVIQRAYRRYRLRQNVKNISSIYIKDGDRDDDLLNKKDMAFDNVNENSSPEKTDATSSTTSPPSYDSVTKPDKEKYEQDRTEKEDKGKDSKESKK

For `Nc1nc(N2CCN(CC(O)COC(F)(F)F)CC2)nnc1-c1cccc(Cl)c1Cl` (centres unmarked) [Compound 27, 1-(4-(5-Amino-6-(2,3-dichlorophenyl)-1,2,4-triazin-3-yl)piperazin-1-yl)-3-(trifluoromethoxy)propan-2-ol], in data set [1], the “pharmacokinetics (qualitative ranking of the compounds tested)” value (shortened to “pharmacokinetics”) was “most favorable pharmacokinetics” and the “exposure after oral dosing (qualitative ranking)” value (shortened to “exposure after oral dosing”) is “best exposure after oral dosing”.

Consider `CC(CO)(CO)Nc1nnc(-c2cccc(Cl)c2Cl)c(N)n1` [Compound 47, 2-((5-Amino-6-(2,3-dichlorophenyl)-1,2,4-triazin-3-yl)amino)-2-methylpropane-1,3-diol], for which, in data set [1], the “exposure after oral dosing” value was “best exposure after oral dosing”.

For `COCCOCC(C)(CO)Nc1nnc(-c2cccc(Cl)c2Cl)c(N)n1` (centres unmarked) [Compound 49, 2-((5-Amino-6-(2,3-dichlorophenyl)-1,2,4-triazin-3-yl)amino)-3-(2-methoxyethoxy)-2-methylpropan-1-ol], in data set [1], the “exposure after oral dosing” value was “best exposure after oral dosing”.

Consider `Nc1nc(NCCOCCOCCOC(F)F)nnc1-c1cccc(Cl)c1Cl` [Compound 57, 6-(2,3-Dichlorophenyl)-N^3-(2-(2-(2-(difluoromethoxy)ethoxy)ethoxy)ethyl)-1,2,4-triazine-3,5-diamine], for which the “exposure after oral dosing” value in data set [1] is “best exposure after oral dosing”.

For the compound `COC(=O)[C@@H]1C[C@@H](O)CN1c1nnc(-c2cccc(Cl)c2Cl)c(N)n1` [Compound 65, (2S,4R)-Methyl 1-(5-amino-6-(2,3-dichlorophenyl)-1,2,4-triazin-3-yl)-4-hydroxypyrrolidine-2-carboxylate], in data set [1], the “pharmacokinetics” value is recorded as “most favorable pharmacokinetics” and the “exposure after oral dosing” value is on record as “best exposure after oral dosing”.

As for `COC[C@@H](O)COC1CN(c2nnc(-c3cccc(Cl)c3Cl)c(N)n2)C1` [Compound 75, (R)-1-((1-(5-Amino-6-(2,3-dichlorophenyl)-1,2,4-triazin-3-yl)azetidin-3-yl)oxy)-3-methoxypropan-2-ol], in data set [1], the “pharmacokinetics” value is “most favorable pharmacokinetics” and the “exposure after oral dosing” value is reported as “best exposure after oral dosing”.

As to `Nc1nc(N2CCN(C[C@@H](O)COCC(F)(F)F)CC2)nnc1-c1cccc(Cl)c1Cl` [Compound 94, (R)-1-(4-(5-amino-6-(2,3-dichlorophenyl)-1,2,4-triazin-3-yl)-piperazin-1-yl)-3-(2,2,2-trifluoroethoxy)-propan-2-ol], in data set [1], the “pharmacokinetics” value is “most favorable pharmacokinetics” and the “exposure after oral dosing” value is “best exposure after oral dosing”.

Turning to `Nc1nc(N2CC(OCC(F)(F)F)C2)nnc1-c1cccc(Cl)c1Cl` [Compound 99, 6-(2,3-dichlorophenyl)-3-(3-(2,2,2-trifluoroethoxy)azetidin-1-yl)-1,2,4-triazin-5-amine.HCl salt], the “exposure after oral dosing” value in data set [1] is “best exposure after oral dosing”.

Turning to `C[C@@H]1CN(c2nnc(-c3cccc(Cl)c3Cl)c(N)n2)C[C@H](C)N1` [Compound 118, 3-N-(3′,5′-dimethylpiperazin-1-yl) lamotrigine], the “exposure after oral dosing” value in data set [1] is “best exposure after oral dosing”.

For `C[C@@H]1CN(c2nnc(-c3cc(F)cc(Cl)c3Cl)c(N)n2)C[C@H](C)N1` [Compound 119, 3-N-(3′,5′-dimethylpiperazin-1-yl) 5′-fluoro lamotrigine], the “exposure after oral dosing” value in data set [1] is on record as “best exposure after oral dosing”.

With `COCCNCCOCCNc1nnc(-c2cccc(Cl)c2Cl)c(N)n1` [Compound 173, 6-(2,3-dichlorophenyl)-N3-(2-(2-((2-methoxyethyl)amino)ethoxy)ethyl)-1,2,4-triazine-3,5-diamine], the IC50 (commonly the concentration at which inhibition is half-maximal) in data set [2] (setting [3]) was 214 µM; in data set [2] (setting [4]), more than 200 µM.

For `CC(=O)NCCOCCNc1nnc(-c2cccc(Cl)c2Cl)c(N)n1` [Compound 175, N-(2-(2-((5-amino-6-(2,3-dichlorophenyl)-1,2,4-triazin-3-yl)amino)ethoxy)ethyl)acetamide], the IC50 is more than 300 µM in data set [2] (setting [3]) and more than 200 µM in data set [2] (setting [4]).

Turning to `CS(=O)(=O)CCOCCNc1nnc(-c2cccc(Cl)c2Cl)c(N)n1` [Compound 176, 6-(2,3-dichlorophenyl)-N3-(2-(2-(methylsulfonyl)ethoxy)ethyl)-1,2,4-triazine-3,5-diamine], the IC50 is 267 µM and 181 µM in data set [2] (setting [3]); more than 200 µM in data set [2] (setting [4]).

With `COCCOCCOCC(C)CNc1nnc(-c2cccc(Cl)c2Cl)c(N)n1` (centres unmarked) [Compound 177, 6-(2,3-dichlorophenyl)-N3-(3-(2-(2-methoxyethoxy)ethoxy)-2-methylpropyl)-1,2,4-triazine-3,5-diamine], the IC50 in data set [2] (setting [3]) was less than 50 µM; in data set [2] (setting [4]), more than 200 µM.

Regarding `COCCOCCOCC(COCCOCCOC)OCCNc1nnc(-c2cccc(Cl)c2Cl)c(N)n1` [Compound 180, 6-(2,3-dichlorophenyl)-N3-(10-((2-(2-methoxyethoxy)ethoxy)methyl)-2,5,8,11-tetraoxatridecan-13-yl)-1,2,4-triazine-3,5-diamine], the IC50 is 298 µM in data set [2] (setting [3]) and more than 200 µM in data set [2] (setting [4]).

For the compound `CN(CCO)c1nnc(-c2cccc(Cl)c2Cl)c(N)n1` [Compound 185, 2-((5-amino-6-(2,3-dichlorophenyl)-1,2,4-triazin-3-yl)(methyl)amino)ethanol], the IC50 in data set [2] (setting [5]) is 176 µM; in data set [2] (read-out: Tonic state IC50), more than 200 µM.

In the case of `COCCS(=O)(=O)CCOCCNc1nnc(-c2cccc(Cl)c2Cl)c(N)n1` [Compound 186, 6-(2,3-dichlorophenyl)-N3-(2-(2-((2-methoxyethyl)sulfonyl)ethoxy)ethyl)-1,2,4-triazine-3,5-diamine], the IC50 was 100 µM in data set [2] (setting [3]) and more than 200 µM in data set [2] (setting [4]).

On to `C[S+]([O-])CCOCCNc1nnc(-c2cccc(Cl)c2Cl)c(N)n1` (centres unmarked) [Compound 187, 6-(2,3-dichlorophenyl)-N3-(2-(2-(methylsulfinyl)ethoxy)ethyl)-1,2,4-triazine-3,5-diamine], for which the values for the IC50 in data set [2] (setting [3]) and in data set [2] (setting [4]) were 160 µM and more than 200 µM, respectively.

Turning to `COCCOCC(=O)N(C)CCN(C)c1nnc(-c2cccc(Cl)c2Cl)c(N)n1` [Compound 190, N-(2-((5-amino-6-(2,3-dichlorophenyl)-1,2,4-triazin-3-yl)(methyl)amino)ethyl)-2-(2-methoxyethoxy)-N-methylacetamide], the IC50 was 273 µM in data set [2] (setting [3]) and more than 200 µM in data set [2] (setting [4]).

Regarding `CN(CCOCCNc1cnc(-c2cccc(Cl)c2Cl)c(N)n1)CC(N)=O` [Compound 191, 2-((2-(2-((6-amino-5-(2,3-dichlorophenyl)pyrazin-2-yl)amino)ethoxy)ethyl)-(methyl)amino)acetamide], the IC50 in data set [2] (setting [3]) was 244 µM; in data set [2] (setting [4]), more than 200 µM.

On to `CN(CCN(C)c1nnc(-c2cccc(Cl)c2Cl)c(N)n1)C(=O)COCC(N)=O` [Compound 192, 2-(2-amino-2-oxoethoxy)-N-(2-((5-amino-6-(2,3-dichlorophenyl)-1,2,4-triazin-3-yl)(methyl)amino)ethyl)-N-methylacetamide], for which the IC50 in data set [2] (setting [3]) is more than 300 µM; in data set [2] (setting [4]), more than 200 µM.

With `COCCOCCN(C)CCN(C)c1nnc(-c2cccc(Cl)c2Cl)c(N)n1` [Compound 193, 6-(2,3-dichlorophenyl)-N3-(2-((2-(2-methoxyethoxy)ethyl)(methyl)amino)ethyl)-N3-methyl-1,2,4-triazine-3,5-diamine], the IC50 was less than 50 µM in data set [2] (setting [3]) and 62.6 µM in data set [2] (setting [4]).

Take `NC(=O)CNCCOCCNc1nnc(-c2cccc(Cl)c2Cl)c(N)n1` [Compound 194, 2-((2-(2-((5-amino-6-(2,3-dichlorophenyl)-1,2,4-triazin-3-yl)amino)ethoxy)ethyl)amino)acetamide]: the values for the IC50 in data set [2] (setting [5]) and in data set [2] (read-out: Tonic state IC50) were more than 300 µM and more than 200 µM, respectively.

On to `COCCOCC(=O)NCC(O)CNc1nnc(-c2cccc(Cl)c2Cl)c(N)n1` (centres unmarked) [Compound 196, N-(3-((5-amino-6-(2,3-dichlorophenyl)-1,2,4-triazin-3-yl)amino)-2-hydroxypropyl)-2-(2-methoxyethoxy)acetamide], for which the results for the IC50 in data set [2] (setting [3]) and in data set [2] (setting [4]) were more than 300 µM and more than 200 µM, respectively.

As to `COC(=O)COCCOCCNc1nnc(-c2cccc(Cl)c2Cl)c(N)n1` [Compound 197, methyl 2-(2-(2-((5-amino-6-(2,3-dichlorophenyl)-1,2,4-triazin-3-yl)amino)ethoxy)ethoxy)acetate], the IC50 in data set [2] (setting [3]) was less than 50 µM; in data set [2] (setting [4]), more than 200 µM.

On to `COC(=O)CNCCOCCNc1nnc(-c2cccc(Cl)c2Cl)c(N)n1` [Compound 199, methyl 2-((2-(2-((5-amino-6-(2,3-dichlorophenyl)-1,2,4-triazin-3-yl)amino)ethoxy)ethyl)amino)acetate], for which the IC50 is more than 300 µM in data set [2] (setting [5]) and more than 200 µM in data set [2] (read-out: Tonic state IC50).

Turning to `CC(C)(C)OC(=O)COCCN1CCN(c2nnc(-c3cccc(Cl)c3Cl)c(N)n2)CC1` [Compound 203, tert-butyl 2-(2-(4-(5-amino-6-(2,3-dichlorophenyl)-1,2,4-triazin-3-yl)piperazin-1-yl)ethoxy)acetate], the IC50 was less than 50 µM in data set [2] (setting [3]) and 87.9 µM in data set [2] (setting [4]).

Consider `CC(C)OCCOCCOCCNc1nnc(-c2cccc(Cl)c2Cl)c(N)n1` [Compound 209, 6-(2,3-dichlorophenyl)-N3-(2-(2-(2-isopropoxyethoxy)ethoxy)ethyl)-1,2,4-triazine-3,5-diamine], for which the IC50 in data set [2] (setting [3]) is less than 50 µM; in data set [2] (setting [4]), more than 200 µM.
